Data published in publication PMC11078746 (Nature, 2024).
Several values for one entry are separate records, joined by “and”; a condition that tells them apart may be missing. Identical values can stand only once. Like-named read-outs stand apart in the source and are kept apart here.

How the values were obtained:
[1] = Compound 3 blood PK in SW48 tumour-bearing mice; assay type: in vivo, mouse
Method: All animal studies were conducted in accordance with ethics and procedures covered by permit BS-2275 and BS-1975 issued by the Kantonales Veterinäramt Basel-Stadt and in strict adherence to guidelines of the Eidgenössisches Tierschutzgesetz and the Eidgenössische Tierschutzverordnung, Switzerland. All animal studies were approved by the internal ethics committee. All animals had access to food and water ad libitum and were identified with transponders. They were housed in a specific-pathogen-free facility in IVC racks under a 12 h–12 h light–dark cycle. To establish cell-line-derived xenograft models, 6–7-week-old female athymic nude (Crl:NU(NCr)-Foxn1^nu) or SCID-BEIGE (CB17.Cg-PrkdcscidLystbg-J/Crl) mice from Charles River were engrafted subcutaneously with 5 million tumour cells in HBSS (H6648, Sigma-Aldrich). For SNU-407, Lovo, IM95, RL95.2, Ishikawa and IGROV-1, the cells were concentrated in 50% Matrigel (354234, Corning). Patient-derived xenografts were induced and expanded by transplantation as previously described. […]. For the efficacy experiment, mice were randomized into groups (n = 5–6) for a mean tumour size of 100–150 mm^3. […] Blood samples were collected on day 7 and 91. […]. Tumour responses are reported with the measures of tumour volumes from the treatment start. […]. Animals were randomized (n = 3) and tumour samples were collected at 0, 1, 4, 8 and 24 h on the first day and then collected 4 h after the last treatment on day 3, 8, 10, 14 (including a 24 h timepoint), 17 and 21. Tumours were excised, weighed, either frozen in liquid nitrogen and cryogenic dry pulverized with the CryoPrep system (model CP-02, Covaris) or processed to FFPE after fixation. […]. On day 12, blood samples were collected for PK analysis. On the last day (3 h after the last treatment), tumours were excised, weighed, frozen in liquid nitrogen and cryogenic dry pulverized for PD analysis. […]. […]

HEC6 = assay: 4 day proliferation assay (CellTiter-Glo); conditions: Homo sapiens, HEC-6, 96 h, read-out: 4 day assay GI50
RL952 = assay: 4 day proliferation assay (CellTiter-Glo); conditions: Homo sapiens, RL95-2, 96 h, read-out: 4 day assay GI50
SNU1 = assay: 4 day proliferation assay (CellTiter-Glo); conditions: Homo sapiens, SNU1, 96 h, read-out: 4 day assay GI50
IGROV1 = assay: 4 day proliferation assay (CellTiter-Glo); conditions: Homo sapiens, IGROV-1, 96 h, read-out: 4 day assay GI50
JHUEM1 = assay: 4 day proliferation assay (CellTiter-Glo); conditions: Homo sapiens, 96 h, read-out: 4 day assay GI50
MDCK LE permeability = assay type: in vitro ADME, canine; conditions: dog
SNGM = assay: 4 day proliferation assay (CellTiter-Glo); conditions: Homo sapiens, 96 h, read-out: 4 day assay GI50
SNUC4 = assay: CFA 10-14 day clonogenic assay; assay type: cell-based; conditions: Homo sapiens, SNU-C4
CW2 = assay: CFA 10-14 day clonogenic assay; assay type: cell-based; conditions: Homo sapiens, CW-2
LS411N = assay: CFA 10-14 day clonogenic assay; assay type: cell-based; conditions: Homo sapiens, LS-411N
102 common targets = assay: Safety pharmacology panel; conditions: all except COX1
RKO = assay: CFA 10-14 day clonogenic assay; assay type: cell-based; conditions: Homo sapiens
EN = assay: 4 day proliferation assay (CellTiter-Glo); conditions: Homo sapiens, 96 h, read-out: 4 day assay GI50
HEC1B = assay: 4 day proliferation assay (CellTiter-Glo); conditions: Homo sapiens, HEC-1B, 96 h, read-out: 4 day assay GI50
CAL33 = assay: 4 day proliferation assay (CellTiter-Glo); conditions: Homo sapiens, CAL-33, 96 h, read-out: 4 day assay GI50
2313287 = assay: 4 day proliferation assay (CellTiter-Glo); conditions: Homo sapiens, 96 h, read-out: 4 day assay GI50
NUGC3 = assay: CFA 10-14 day clonogenic assay; assay type: cell-based; conditions: Homo sapiens, NUGC-3
IM95 = assay: CFA 10-14 day clonogenic assay; assay type: cell-based; conditions: Homo sapiens
LIM2405 = assay: 4 day proliferation assay (CellTiter-Glo); conditions: Homo sapiens, 96 h, read-out: 4 day assay GI50

In the case of `CCc1c(N2CCN(C(=O)c3ncccc3O)CC2)c(=O)n2nc(C3=CCOCC3)nc2n1CC(=O)Nc1ccc(C(F)(F)F)cc1C` [compound 3], the concentration at 4 h ([1]; 15mg/kg BID, 1 h, single mouse, listed as WRNi #4, read-out: Total blood concentration) is reported as 680 nM and 520 nM, the concentration at 4 h ([1]; 15mg/kg BID, 2 h, single mouse, listed as WRNi #4, read-out: Total blood concentration) is reported as 110 nM and 260 nM and 360 nM and the concentration at 4 h ([1]; 15mg/kg BID, 4 h, single mouse, listed as WRNi #4, read-out: Total blood concentration) is reported as 100 nM and 200 nM. For the same compound, the concentration at 4 h ([1]; 15mg/kg BID, 8 h, single mouse, listed as WRNi #4, read-out: Total blood concentration) was 80 nM and 130 nM and 220 nM, the concentration at 4 h ([1]; 15mg/kg BID, last day of the efficacy experiment, 0.5 h post treatment, single mouse, listed as WRNi #4, read-out: Total blood concentration) was 450 nM and 470 nM and 950 nM and the concentration at 4 h ([1]; 50mg/kg BID, 0.5 h, single mouse, listed as WRNi #4, read-out: Total blood concentration) was 8660 nM and 6870 nM. For the same compound, the concentration at 4 h ([1]; 50mg/kg BID, 1 h, single mouse, listed as WRNi #4, read-out: Total blood concentration) was 5090 nM and 4750 nM, the concentration at 4 h ([1]; 50mg/kg BID, 2 h, single mouse, listed as WRNi #4, read-out: Total blood concentration) was 1600 nM and 2410 nM and the concentration at 4 h ([1]; 50mg/kg BID, 4 h, single mouse, listed as WRNi #4, read-out: Total blood concentration) was 470 nM and 240 nM and 860 nM. The concentration at 4 h ([1]; 50mg/kg BID, 8 h, single mouse, listed as WRNi #4, read-out: Total blood concentration) was 100 nM and 210 nM and 230 nM, the concentration at 4 h ([1]; 150mg/kg BID, 0.5 h, single mouse, listed as WRNi #4, read-out: Total blood concentration) was 23940 nM and 28210 nM and the concentration at 4 h ([1]; 150mg/kg BID, 1 h, single mouse, listed as WRNi #4, read-out: Total blood concentration) was 13050 nM and 11280 nM. The concentration at 4 h ([1]; 150mg/kg BID, 2 h, single mouse, listed as WRNi #4, read-out: Total blood concentration) was 7350 nM and 7410 nM, the concentration at 4 h ([1]; 150mg/kg BID, 4 h, single mouse, listed as WRNi #4, read-out: Total blood concentration) was 3220 nM and 720 nM and 1060 nM and the concentration at 4 h ([1]; 150mg/kg BID, 8 h, single mouse, listed as WRNi #4, read-out: Total blood concentration) was 460 nM and 210 nM and 390 nM. For the same compound, the concentration at 0.5 h ([1]; female, mouse, whole blood, oral, 15 mg/kg, 15mg/kg BID, 0.5 h, read-out: Mean total blood concentration) was 620 nM, the concentration at 1 h ([1]; female, mouse, whole blood, oral, 15 mg/kg, 15mg/kg BID, 1 h, read-out: Mean total blood concentration) was 680 nM and the concentration at 1 h ([1]; female, mouse, whole blood, oral, 15 mg/kg, 15mg/kg BID, 1 h, single mouse, read-out: Total blood concentration) was 840 nM. It also gave a concentration at 2 h ([1]; female, mouse, whole blood, oral, 15 mg/kg, 15mg/kg BID, 2 h, read-out: Mean total blood concentration) of 240 nM, a concentration at 4 h ([1]; female, mouse, whole blood, oral, 15 mg/kg, 15mg/kg BID, 4 h, read-out: Mean total blood concentration) of 130 nM and a concentration at 4 h ([1]; female, mouse, whole blood, oral, 15 mg/kg, 15mg/kg BID, 4 h, single mouse, read-out: Total blood concentration) of 100 nM. For the same compound, the concentration at 8 h ([1]; female, mouse, whole blood, oral, 15 mg/kg, 15mg/kg BID, 8 h, read-out: Mean total blood concentration) was 140 nM, the concentration at 0.5 h ([1]; female, mouse, whole blood, oral, 50 mg/kg, 50mg/kg BID, 0.5 h, read-out: Mean total blood concentration) was 7340 nM and the concentration at 0.5 h ([1]; female, mouse, whole blood, oral, 50 mg/kg, 50mg/kg BID, 0.5 h, single mouse, read-out: Total blood concentration) was 6500 nM. For the same compound, the concentration at 1 h ([1]; female, mouse, whole blood, oral, 50 mg/kg, 50mg/kg BID, 1 h, read-out: Mean total blood concentration) was 4820 nM, the concentration at 1 h ([1]; female, mouse, whole blood, oral, 50 mg/kg, 50mg/kg BID, 1 h, single mouse, read-out: Total blood concentration) was 4620 nM and the concentration at 2 h ([1]; female, mouse, whole blood, oral, 50 mg/kg, 50mg/kg BID, 2 h, read-out: Mean total blood concentration) was 2060 nM. The concentration at 2 h ([1]; female, mouse, whole blood, oral, 50 mg/kg, 50mg/kg BID, 2 h, single mouse, read-out: Total blood concentration) was 2180 nM, the concentration at 4 h ([1]; female, mouse, whole blood, oral, 50 mg/kg, 50mg/kg BID, 4 h, read-out: Mean total blood concentration) was 520 nM and the concentration at 8 h ([1]; female, mouse, whole blood, oral, 50 mg/kg, 50mg/kg BID, 8 h, read-out: Mean total blood concentration) was 180 nM. It also gave a concentration at 0.5 h ([1]; female, mouse, whole blood, oral, 150 mg/kg, 150mg/kg BID, 0.5 h, read-out: Mean total blood concentration) of 22900 nM, a concentration at 0.5 h ([1]; female, mouse, whole blood, oral, 150 mg/kg, 150mg/kg BID, 0.5 h, single mouse, read-out: Total blood concentration) of 16500 nM and a concentration at 1 h ([1]; female, mouse, whole blood, oral, 150 mg/kg, 150mg/kg BID, 1 h, read-out: Mean total blood concentration) of 14700 nM. For the same compound, the concentration at 1 h ([1]; female, mouse, whole blood, oral, 150 mg/kg, 150mg/kg BID, 1 h, single mouse, read-out: Total blood concentration) was 19700 nM, the concentration at 2 h ([1]; female, mouse, whole blood, oral, 150 mg/kg, 150mg/kg BID, 2 h, read-out: Mean total blood concentration) was 8330 nM and the concentration at 2 h ([1]; female, mouse, whole blood, oral, 150 mg/kg, 150mg/kg BID, 2 h, single mouse, read-out: Total blood concentration) was 10200 nM. For the same compound, the concentration at 4 h ([1]; female, mouse, whole blood, oral, 150 mg/kg, 150mg/kg BID, 4 h, read-out: Mean total blood concentration) was 1670 nM and the concentration at 8 h ([1]; female, mouse, whole blood, oral, 150 mg/kg, 150mg/kg BID, 8 h, read-out: Mean total blood concentration) was 350 nM.

With `CCc1c(N2CCN(C(=O)c3ncnc(C)c3O)CC2)c(=O)n2nc(C3=CCOCC3)nc2n1CC(=O)Nc1ccc(C(F)(F)F)cc1Cl` [HRO761] the GI50 (HEC6) was 0.365 µM, the GI50 (RL952) was 0.144 µM and the GI50 (SNU1) was ≥ 10 µM. For the same compound, the GI50 (IGROV1) was 2.75 µM, the GI50 (JHUEM1) was 0.946 µM and the Papp A→B (MDCK LE permeability; A-B) was 30 ×10⁻⁶ cm/s. The Papp (MDCK LE permeability; Fig. 1b) was 31 ×10⁻⁶ cm/s, the GI50 (SNGM) was ≥ 10 µM and the GI50 (SNUC4) was 0.035 µM. For the same compound, the GI50 (CW2) was 0.068 µM, the GI50 (LS411N) was 0.03 µM and the Ames (Ames) was “Negative”. The “Safety pharmacology panel (102 common targets)” value (102 common targets) was > 30 μM, the GI50 (RKO) was 0.243 µM and the GI50 (EN) was ≥ 10 µM. The GI50 (HEC1B) was ≥ 10 µM, the GI50 (CAL33) was ≥ 10 µM and the GI50 2313287 was ≥ 10 µM. For the same compound, the GI50 (NUGC3) was ≥ 10 µM, the GI50 (IM95) was 0.255 µM and the GI50 (LIM2405) was 1.53 µM.
